Patent US11345702B1 (Myoforte Therapeutics, Inc., priority 2020, dated 2022)

What follows are compounds tested against 15-PGDH/HPGD (Homo sapiens (Human), UniProt P15428) (assay: hPGDH inhibitor screening biochemical assay). Settings: read-out: hPGDH: Average IC50.
Summary of the method: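 Ten-point dose-response inhibition of 15-PGDH measured by fluorescence (340/485 nm) after 10 min at room temperature with PGE2 (15 μM) and NAD+ (0.25 mM), following 10 min enzyme (10 nM)–compound pre-incubation at 37 °C. Buffer: 50 mM Tris-HCl pH 7.5, 0.01% Tween 20. Percent inhibition relative to 1% DMSO; four-parameter IC50.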

Sequence of 15-PGDH/HPGD (P15428 whole entry): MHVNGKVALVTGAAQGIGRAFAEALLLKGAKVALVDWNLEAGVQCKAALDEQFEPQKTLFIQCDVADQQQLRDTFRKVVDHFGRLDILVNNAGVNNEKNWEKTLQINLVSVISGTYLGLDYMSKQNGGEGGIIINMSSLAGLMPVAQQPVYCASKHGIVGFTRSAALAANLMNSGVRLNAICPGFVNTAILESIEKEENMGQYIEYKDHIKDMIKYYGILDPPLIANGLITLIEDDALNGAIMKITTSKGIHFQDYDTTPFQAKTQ

First: CC(C)(C#Cc1ccc(-n2ccc3cc(C(=O)N4CCC(F)(F)CC4)cnc32)cn1)S(C)(=O)=O [MF-DH-465, (4,4-difluoropiperidin-1-yl)(1-(6-(3-methyl-3-(methylsulfonyl)but-1-yn-1-yl)pyridin-3-yl)-1H-pyrrolo[2,3-b]pyridin-5-yl)methanone]
Second: NS(=O)(=O)c1ccc(-n2ccc3cc(C(=O)N4CCC(F)(F)CC4)cnc32)cc1 [MF-DH-496]
The IC50 of the first is higher: 100 to 1000 nM for the first, under 100 nM for the second. The second is the more potent here.

`O=C(NCCO)c1cccc(-n2ccc3cc(C(=O)N4CCC(F)(F)CC4)cnc32)c1` [MF-DH-468, 3-(5-(4,4-difluoropiperidine-1-carbonyl)-1H-pyrrolo[2,3-b]pyridin-1-yl)-N-(2-hydroxyethyl)benzamide] and `CS(=O)(=O)NCCNC(=O)c1cccc(-n2ccc3cc(C(=O)N4CCC(F)(F)CC4)cnc32)c1` [MF-DH-480, 3-(5-(4,4-difluoropiperidine-1-carbonyl)-1H-pyrrolo[2,3-b]pyridin-1-yl)-N-(2-(methylsulfonamido)ethyl)benzamide] cannot be ordered by IC50: under 100 nM for the first, under 100 nM for the second.

`O=C(O)c1ccc(-n2ccc3cc(C(=O)N4CCC(F)(F)CC4)cnc32)nc1` [MF-DH-469] and `CCNC(=O)c1ccc(-n2ccc3cc(C(=O)N4CCC(F)(F)CC4)cnc32)nc1` [MF-DH-477, 6-(5-(4,4-difluoropiperidine-1-carbonyl)-1H-pyrrolo[2,3-b]pyridin-1-yl)-N-ethylnicotinamide] cannot be ordered by IC50: under 100 nM for the first, under 100 nM for the second.

First: CC(C)(O)C#Cc1nc2cc(C(=O)N3CCC(F)(F)CC3)cnc2n1-c1ccc(C#N)cc1 [MF-DH-476, 4-(6-(4,4-difluoropiperidine-1-carbonyl)-2-(3-hydroxy-3-methylbut-1-yn-1-yl)-3H-imidazo[4,5-b]pyridin-3-yl)benzonitrile]
Second: N#Cc1cc(-n2ccc3cc(C(=O)N4CCC(F)(F)CC4)cnc32)cnc1O [MF-DH-502]
The IC50 of the first is higher: 100 to 1000 nM for the first, under 100 nM for the second.

`NC[C@@H]1CN(c2ccc(-n3ccc4cc(C(=O)N5CCC(F)(F)CC5)cnc43)cn2)C(=O)O1` [MF-DH-478] and `NC[C@@H]1CN(c2cncc(-n3ccc4cc(C(=O)N5CCC(F)(F)CC5)cnc43)c2)C(=O)O1` [MF-DH-479] cannot be ordered by IC50: under 100 nM for the first, under 100 nM for the second.

`O=C(c1cnc2c(ccn2-c2cncc(NS(=O)(=O)C3CC3)c2)c1)N1CCC(F)(F)CC1` [MF-DH-484, N-(5-(5-(4,4-difluoropiperidine-1-carbonyl)-1H-pyrrolo[2,3-b]pyridin-1-yl)pyridin-3-yl)cyclopropanesulfonamide] and `CC(C)(C(N)=O)c1cncc(-n2ccc3cc(C(=O)N4CCC(F)(F)CC4)cnc32)c1` [MF-DH-487, 2-(5-(5-(4,4-difluoropiperidine-1-carbonyl)-1H-pyrrolo[2,3-b]pyridin-1-yl)pyridin-3-yl)-2-methylpropanamide] cannot be ordered by IC50: under 100 nM for the first, under 100 nM for the second.

First: NC(=O)[C@@H]1CCCN1C(=O)c1cccc(-n2ccc3cc(C(=O)N4CCC(F)(F)CC4)cnc32)c1 [MF-DH-486, (S)-1-(3-(5-(4,4-difluoropiperidine-1-carbonyl)-1H-pyrrolo[2,3-b]pyridin-1-yl)benzoyl)pyrrolidine-2-carboxamide]
Second: O=C(O)[C@@H]1CCCN1C(=O)c1cccc(-n2ccc3cc(C(=O)N4CCC(F)(F)CC4)cnc32)c1 [MF-DH-489, (3-(5-(4,4-difluoropiperidine-1-carbonyl)-1H-pyrrolo[2,3-b]pyridin-1-yl)benzoyl)-L-proline]
The IC50 of the first is lower: under 100 nM for the first, 100 to 1000 nM for the second. The first is the more potent here.

`NS(=O)(=O)c1cccc(-n2ccc3cc(C(=O)N4CCC(F)(F)CC4)cnc32)c1` [MF-DH-495] and `O=C(c1cnc2c(ccn2-c2cccc(C(=O)N3CCS(=O)(=O)C3)c2)c1)N1CCC(F)(F)CC1` [MF-DH-497, (4,4-difluoropiperidin-1-yl)(1-(3-(1,1-dioxidothiazolidine-3-carbonyl)phenyl)-1H-pyrrolo[2,3-b]pyridin-5-yl)methanone] cannot be ordered by IC50: under 100 nM for the first, under 100 nM for the second.

In the case of `O=C(Nc1cc(C2CC2)[nH]n1)c1cncc(-n2ccc3cc(C(=O)N4CCC(F)(F)CC4)cnc32)c1` [MF-DH-501, N-(5-cyclopropyl-1H-pyrazol-3-yl)-5-(5-(4,4-difluoropiperidine-1-carbonyl)-1H-pyrrolo[2,3-b]pyridin-1-yl)nicotinamide], the IC50 is reported as under 100 nM.
